Assay results as given in ChEMBL document CHEMBL1799935, “Identification of new inhibitors of protein kinase R guided by statistical modeling” (Bioorg Med Chem Lett, 2011).
Calls of active or inactive are those of the source. The rule behind the calls is not given here.

Legend:
[1] = target: T1, Interferon-induced, double-stranded RNA-activated protein kinase (Homo sapiens, UniProt P19525); test: Inhibition of human recombinant PKR autophosphorylation using poly[I:C] after 10 mins by luminescent assay
[2] = system: Vero; test: Cytotoxicity against african green monkey Vero cells assessed as cell survival at up to 100 uM after 48 hrs by MTS assay; assay type: cell-based; settings: chlorocebus sabaeus
[3] = Cytotoxicity against mouse bone marrow macrophages assessed as cell survival at up to 100 uM after 48 hrs by MTS assay; assay type: cell-based; settings: macrophage
[4] = Cytotoxicity against mouse bone marrow macrophages assessed as cell survival at 30 uM after 24 hrs by photomicroscopy analysis; assay type: cell-based; settings: macrophage
[5] = target: T1, Interferon-induced, double-stranded RNA-activated protein kinase; test: Competitive inhibition of human recombinant PKR
[6] = target: T2, Interferon-induced, double-stranded RNA-activated protein kinase (Mus musculus) (UniProt Q03963); test: Inhibition of poly[I:C]-induced PKR autophosphorylation mouse bone marrow macrophages treated immediately before addition of poly[I:C] by Western blotting
T2 sequence (whole entry): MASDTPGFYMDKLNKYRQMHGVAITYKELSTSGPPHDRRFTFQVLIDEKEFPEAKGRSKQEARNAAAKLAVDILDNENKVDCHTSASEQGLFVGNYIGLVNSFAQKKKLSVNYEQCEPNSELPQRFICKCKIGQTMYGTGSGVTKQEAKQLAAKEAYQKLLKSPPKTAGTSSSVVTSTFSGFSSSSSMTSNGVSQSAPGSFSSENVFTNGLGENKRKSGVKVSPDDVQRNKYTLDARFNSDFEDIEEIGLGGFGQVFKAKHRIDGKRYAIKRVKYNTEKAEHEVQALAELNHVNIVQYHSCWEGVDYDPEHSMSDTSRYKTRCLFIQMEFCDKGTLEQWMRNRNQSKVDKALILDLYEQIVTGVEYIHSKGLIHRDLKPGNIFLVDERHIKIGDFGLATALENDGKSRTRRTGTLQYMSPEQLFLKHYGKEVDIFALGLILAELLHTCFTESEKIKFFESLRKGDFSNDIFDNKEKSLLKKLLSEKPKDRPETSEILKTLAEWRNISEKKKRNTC

[7] = target: T2, Interferon-induced, double-stranded RNA-activated protein kinase (Mus musculus); test: Inhibition of poly[I:C]-induced PKR autophosphorylation mouse bone marrow macrophages at 40 uM treated immediately before addition of poly[I:C] by Western blotting

T1 sequence (P19525 whole entry): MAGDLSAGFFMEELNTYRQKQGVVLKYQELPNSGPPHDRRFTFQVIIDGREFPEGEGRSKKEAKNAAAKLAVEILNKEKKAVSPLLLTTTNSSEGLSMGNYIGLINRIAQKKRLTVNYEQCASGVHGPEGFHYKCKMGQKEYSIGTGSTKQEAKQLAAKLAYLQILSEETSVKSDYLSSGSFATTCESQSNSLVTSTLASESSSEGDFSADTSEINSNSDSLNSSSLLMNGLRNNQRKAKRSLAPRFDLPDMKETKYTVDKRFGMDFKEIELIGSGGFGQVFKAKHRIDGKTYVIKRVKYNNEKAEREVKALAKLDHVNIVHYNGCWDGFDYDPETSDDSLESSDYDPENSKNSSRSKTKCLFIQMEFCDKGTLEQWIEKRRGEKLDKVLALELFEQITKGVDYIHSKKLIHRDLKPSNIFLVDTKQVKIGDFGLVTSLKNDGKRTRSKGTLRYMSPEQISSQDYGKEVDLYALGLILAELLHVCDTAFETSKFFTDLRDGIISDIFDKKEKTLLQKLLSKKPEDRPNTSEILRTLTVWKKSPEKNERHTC

| Compound | IC50 [1] [µM] | other results |
| --- | --- | --- |
| COC(=O)c1ccc2c(-c3ccnc(NCCO)n3)c[nH]c2c1 | 9 |  |
| CSc1cccc(N/C=C2\C(=O)Nc3ccccc32)c1 | 2.5 |  |
| Cc1[nH]c2ccccc2c1-c1ccnc(NC(CO)C(C)C)n1 (configuration not stated) | 50 |  |
| CN1CCN(c2ccc(Nc3ncnc4ccc([N+](=O)[O-])cc34)cc2)CC1 | 15 |  |
| Cc1[nH]c2ccccc2c1-c1ccnc(Nc2cccc(Cl)c2)n1 | 0.3 |  |
| Cc1[nH]c2ccccc2c1-c1ccnc(Nc2cccnc2)n1 | 0.1 |  |
| Nc1nc(Nc2ccc(S(N)(=O)=O)cc2)nn1C(=O)Nc1c(F)cccc1F | 8 |  |
| COc1ccc2[nH]c(C)c(-c3ccnc(NC4CCCC4)n3)c2c1 | 1.5 |  |
| COCCCNc1nccc(-c2c(C)[nH]c3ccc(Cl)cc23)n1 | 3 |  |
| Cc1[nH]c2ccc(Cl)cc2c1-c1ccnc(Nc2ccc(N3CCN(C)CC3)cc2)n1 | 0.1 |  |
| Cc1[nH]c2ccccc2c1-c1ccnc(NCCc2c[nH]c3ccccc23)n1 | 9 | Activity [2]: Non-toxic; Activity [3]: Non-toxic; Activity [4]: Non-toxic; Ki [5]: 3.4 µM; inhibition [6]: Dose-dependent effect |
| FC(F)(F)c1nnc2ccc(NCCc3c[nH]c4ccccc34)nn12 | 19 |  |
| COC(=O)c1ccc2c(-c3ccnc(SCCN(C)C)n3)c[nH]c2c1 | > 100 |  |
| COc1ccc(Nc2nccc(-c3c(C)[nH]c4ccc(OC)cc34)n2)cc1 | 55 |  |
| C=C1NNC(=O)N=C1Nc1ccc2cn[nH]c2c1 | 16 |  |
| Fc1ccc(N2CCN(c3nccc(-c4c[nH]c5ccccc45)n3)CC2)cc1 | > 100 |  |
| c1cc(-c2cnn3cc(-c4ccc(OCCN5CCCCC5)cc4)cnc23)ccn1 [DORSOMORPHIN] | 16 |  |
| N#Cc1cnc2cnc(NCc3cccnc3)cc2c1Nc1ccc(F)c(Cl)c1 | 0.25 |  |
| O=C1NC(=O)/C(=C/c2c[nH]c3ccc(Br)cc23)N1 | 4 |  |
| COc1ccc2c(c1)/C(=C/c1cnc[nH]1)C(=O)N2 [SU-9516] | 5 |  |
| O=C(O)/C=C/c1cc(Br)c(Br)c(Br)c1Br | 7 |  |
| Cc1[nH]c2ccccc2c1-c1ccnc(N2CCCC2)n1 | > 100 |  |
| Cc1[nH]c2ccccc2c1-c1ccnc(N2CCN(c3ccccn3)CC2)n1 | > 100 |  |
| Cc1[nH]c2ccccc2c1-c1ccnc(Nc2ccc(Cl)cc2)n1 | 0.6 |  |
| O=C1NC(=O)c2c1c1c3ccccc3[nH]c1n1cncc21 [ISOGRANULATIMIDE] | < 0.1 |  |
| O=c1nncc(Nc2ccc3cn[nH]c3c2)[nH]1 | 13 |  |
| Nc1n[nH]c2nc3ccccc3nc12 [QUINOXALINE1] | 6 |  |

| Compound | IC50 [1] [µM] | other results |
| --- | --- | --- |
| c1ccc(-c2[nH]c3ccccc3c2-c2ccnc(NCc3cccnc3)n2)cc1 | > 100 | inhibition [7]: inactive |
| Cc1[nH]c2ccccc2c1-c1ccnc(NCc2cccnc2)n1 | 45 |  |
| Cc1[nH]c2ccccc2c1-c1ccnc(Nc2ccccc2Cl)n1 | 19 |  |
| O=C1NCc2c1c1c3ccccc3n3c1c1c2c2ccccc2n1C1CCC3O1 (configuration not stated) | 0.75 |  |
| Cn1nc2c3c(cccc31)C(=O)c1ccccc1-2 | 12 |  |
| COC(=O)c1ccc2c(-c3ccnc(NCCN4CCOCC4)n3)c[nH]c2c1 | 18 |  |
| COc1ccc2[nH]c(C)c(-c3ccnc(Nc4ccc(Cl)cc4)n3)c2c1 | 50 |  |
| Cc1[nH]c2ccc(Cl)cc2c1-c1ccnc(N2CCCC2)n1 | > 100 |  |
| NCc1ccc(C(=O)N/N=C2\C(=O)Nc3ccc(Br)cc32)cc1 | 12 |  |
| c1ccc2c(CCNc3nccc(-c4c[nH]nc4-c4ccncc4)n3)c[nH]c2c1 | 51 |  |
| Nc1ncnc2[nH]nc(Nc3ccc(F)cc3)c12 | 5 |  |
| Cc1[nH]c2ccc(Cl)cc2c1-c1ccnc(NCc2cccnc2)n1 | 48 |  |
| Nc1cccc(-c2cc3c(Oc4cccc(O)c4)ncnc3[nH]2)c1 | 4 |  |
| CN1C(=O)NC(=O)/C(=C\c2c[nH]c3ccc(O)cc23)C1=O | 3 |  |
| Cc1[nH]c2ccc(Cl)cc2c1-c1ccnc(N2CCN(c3ccc(F)cc3)CC2)n1 | > 100 |  |
| Cc1[nH]c2ccccc2c1-c1ccnc(NCCO)n1 | 11 |  |
| Cn1ncc2c(N3CCOCC3)nc(NCCc3c[nH]c4ccccc34)nc21 [TDR79432] | 11 |  |
| O=C(Nc1cccc(Nc2nccc(Nc3cccc(C(F)(F)F)c3)n2)c1)C1CC1 [ANILINOPYRIMIDINE1] | 20 |  |
| O=Nc1c(-c2c(O)[nH]c3ccccc23)[nH]c2ccccc12 [INDIRUBIN-3-MONOXIME] | < 0.1 |  |
| COC(=O)[C@]1(O)C[C@@H]2O[C@@]1(C)n1c3ccccc3c3c4c(c5c6ccccc6n2c5c31)C(=O)NC4 (single isomer, unassigned) | < 0.1 |  |
| COc1ccc2c(c1)[nH]c1c(N3CCN(C(N)=O)CC3)ncnc12 | 13 |  |
| Nc1nc(Nc2ccc(OC(F)(F)F)cc2)c2nc[nH]c2n1 | 20 |  |
| O=C1NC(=O)/C(=C/c2c[nH]c3ccccc23)N1 | 10.5 |  |
| O=C1Cc2ccc(Oc3ccc4c(c3)NC(=O)C4)cc2N1 | 14 |  |
| O=C1NC(=O)c2c1c1c3ccccc3[nH]c1c1[nH]c3cc(Br)ccc3c21 | 6 |  |
| c1ccc(-c2[nH]c3ccccc3c2-c2ccnc(NC3CCCC3)n2)cc1 | > 100 | inhibition [7]: inactive |
| NC(=O)Nc1sc(-c2ccc(F)cc2)cc1C(N)=O | 0.25 |  |

| Compound | IC50 [1] [µM] | other results |
| --- | --- | --- |
| c1ccc(-c2[nH]c3ccccc3c2-c2ccnc(NCCN3CCOCC3)n2)cc1 | 12 |  |
| O=C1NC(=O)/C(=C\c2c[nH]c3ccccc23)N1 | 11 |  |
| Cc1[nH]c2ccc(Cl)cc2c1-c1ccnc(NCCN2CCOCC2)n1 | 12 |  |
| C=C1NNC(=O)/C1=N\Nc1ccc(S(N)(=O)=O)cc1 | 11 |  |
| Fc1ccc(Nc2nccc(-c3c(-c4ccccc4)[nH]c4ccccc34)n2)cc1 | 7 |  |
| CC(C)n1cnc2c(Nc3cccc(Cl)c3)nc(NCCO)nc21 | 16 |  |
| CCN(CC)C(=O)c1ccc(Nc2nc(OCC3CCCCC3)c3nc[nH]c3n2)cc1 | 2 |  |
| N#C/C(=C1/Nc2ccccc2S1)c1ccnc(NCCc2cccnc2)n1 | < 0.1 |  |
| COc1ccc2c(c1)/C(=N/NC(=O)c1cc(Br)ccc1O)C(=O)N2 | 9.4 |  |
| Cc1[nH]c2ccc(Cl)cc2c1-c1ccnc(NC2CCCC2)n1 | 8 |  |
| O=C(O)c1ccc2c3c1cccc3c(=O)n1c3ccccc3nc21 | < 0.1 |  |
| Cc1[nH]c2ccc(Cl)cc2c1-c1ccnc(Nc2cccc(Cl)c2)n1 | 2.5 |  |
| Cc1[nH]c2ccccc2c1-c1ccnc(Nc2ccc(F)cc2)n1 | 0.15 |  |
| COc1ccc2[nH]cc(-c3ccnc(NCCN4CCOCC4)n3)c2c1 | > 100 |  |
| Cc1cc(Nc2nc(-c3ccccc3)nc3ccccc23)[nH]n1 | 15 |  |
| Cc1[nH]c2ccccc2c1-c1ccnc(N2CCOCC2)n1 | 90 |  |
| Oc1c2ccccc2c2c3c(cccc13)N=N2 [SP-600125] | 8 |  |
| CCn1cnc2c(Nc3cccc(Cl)c3)nc(N[C@@H]3CCCC[C@@H]3N)nc21 | 3 |  |
| O=C1Nc2cc(Br)ccc2/C1=C1/Nc2ccccc2/C1=N\O [6BIO] | 0.6 |  |
| OCCNc1nccc(-c2c[nH]c3ccccc23)n1 | 11 |  |
| Nc1nc(Nc2ccc(S(N)(=O)=O)cc2)nn1C(=S)Nc1c(F)cccc1F | 1.6 |  |
| N#CCCc1ccc2c(c1)C1Nc3ccc([N+](=O)[O-])cc3C1CC(=O)N2 (configuration not stated) | 3.5 |  |
| O=C1Nc2ccccc2/C1=C1/Nc2ccccc2/C1=N\OCCC(O)CO (configuration not stated) | < 0.1 |  |
| COCCCNc1nccc(-c2c(C)[nH]c3ccccc23)n1 | 1.5 |  |
| Cc1[nH]c2ccccc2c1-c1ccnc(Nc2ccc(F)c(F)c2)n1 | 1.5 |  |
| Cc1[nH]c2ccccc2c1-c1ccnc(N2CCN(c3ccc(F)cc3)CC2)n1 | > 100 |  |
